Assay results published in PubChem BioAssay AID330 (DTP/NCI, 2004).
Several values for one entry are separate records, joined by “and”; a condition that tells them apart may be missing. Equal entries are not always repeated. Inconclusive results and toxic doses are left out. How the source made its calls: active means survival T/C of 150% or more; inactive means T/C below 125% in these data. Peptide text beside a SMILES is read from it.

Tested on: P388 leukemia ip, CD2F1 mice, survival T/C
Assay: NCI In Vivo Anticancer Drug Screen. Data for tumor model P388 Leukemia (intraperitoneal) in CD2F1 (CDF1) mice
Conditions: endpoint: median survival time, higher = longer survival
How it was run: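 Mice carrying the transplanted tumor received test compound or vehicle. Survival was recorded in each group, and the value is the treated-group measurement divided by that of the vehicle-treated control group.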

[1] = dose: 12.5 mg/kg/injection, schedule: Q01DX009 (ip), vehicle: Klucel (hydroxypropylcellulose) (HPC)
[2] = dose: 25.0 mg/kg/injection, schedule: Q01DX009 (ip), vehicle: Klucel (hydroxypropylcellulose) (HPC)
[3] = dose: 25.0 mg/kg/injection, schedule: Q04DX003 (ip), vehicle: Klucel (hydroxypropylcellulose) (HPC)
[4] = dose: 50.0 mg/kg/injection, schedule: Q01DX009 (ip), vehicle: Klucel (hydroxypropylcellulose) (HPC)
[5] = dose: 50.0 mg/kg/injection, schedule: Q04DX003 (ip), vehicle: Klucel (hydroxypropylcellulose) (HPC)
[6] = dose: 100.0 mg/kg/injection, schedule: Q01DX009 (ip), vehicle: Klucel (hydroxypropylcellulose) (HPC)
[7] = dose: 100.0 mg/kg/injection, schedule: Q04DX003 (ip), vehicle: Klucel (hydroxypropylcellulose) (HPC)
[8] = dose: 200.0 mg/kg/injection, schedule: Q01DX009 (ip), vehicle: Klucel (hydroxypropylcellulose) (HPC)
[9] = dose: 200.0 mg/kg/injection, schedule: Q04DX003 (ip), vehicle: Klucel (hydroxypropylcellulose) (HPC)
[10] = dose: 100.0 mg/kg/injection, schedule: Q04DX003 (ip), vehicle: saline with Tween-80
[11] = dose: 200.0 mg/kg/injection, schedule: Q04DX003 (ip), vehicle: saline with Tween-80
[12] = dose: 400.0 mg/kg/injection, schedule: Q04DX003 (ip), vehicle: saline with Tween-80
[13] = dose: 60.0 mg/kg/injection, schedule: Q01DX005 (ip), vehicle: saline with Tween-80
[14] = dose: 50.0 mg/kg/injection, schedule: Q01DX005 (ip), vehicle: saline
[15] = dose: 100.0 mg/kg/injection, schedule: Q01DX005 (ip), vehicle: saline
[16] = dose: 200.0 mg/kg/injection, schedule: Q01DX005 (ip), vehicle: saline
[17] = dose: 50.0 mg/kg/injection, schedule: Q01DX009 (ip), vehicle: saline with Tween-80
[18] = dose: 100.0 mg/kg/injection, schedule: Q01DX009 (ip), vehicle: saline with Tween-80
[19] = dose: 200.0 mg/kg/injection, schedule: Q01DX009 (ip), vehicle: saline with Tween-80

Measured: T/C

COc1ccc2c(oc(=O)c3c(Cl)nc(C)c(C)c32)c1OC
inactive: [1] 98 % of control | dose: 12.5 mg/kg/injection, schedule: Q04DX003 (ip), vehicle: Klucel (hydroxypropylcellulose) (HPC) 100 % of control | [2] 98 % of control | [3] 102 % of control | [4] 98 % of control | [5] 94 % of control | [6] 97 % of control | [7] 90 % of control | [8] 97 % of control | [9] 90 % of control

CCOC(=O)C(Cc1ccc(N(CCCl)CCCl)cc1)NC(=O)C(C)NC(C)=O (stereo not given)
inactive: dose: 5.0 mg/kg/injection, schedule: Q04DX003 (ip), vehicle: water 108 % of control | dose: 10.0 mg/kg/injection, schedule: Q04DX003 (ip), vehicle: water 111 % of control and 113 % of control | dose: 40.0 mg/kg/injection, schedule: Q04DX003 (ip), vehicle: water 122 % of control

O=[N+]([O-])c1c(Nc2ccccc2)ncnc1Nc1ccccc1
inactive: [10] 105 % of control | [11] 106 % of control | [12] 100 % of control

O=C1NC(=O)C(c2ccccc2)(c2ccc(O)cc2)N1 (stereo not given)
inactive: [10] 115 % of control | [11] 110 % of control | [12] 115 % of control

S=CN1CCCCC1
inactive: dose: 15.0 mg/kg/injection, schedule: Q01DX005 (ip), vehicle: saline with Tween-80 98 % of control | dose: 30.0 mg/kg/injection, schedule: Q01DX005 (ip), vehicle: saline with Tween-80 106 % of control | [13] 106 % of control

C[S+](C)CCCl
inactive: [14] 100 % of control | [15] 107 % of control | [16] 109 % of control

C=C(C)CN1C(=O)C(C)S/C1=N/N=C1/SCC(=O)N1C (stereo not given)
inactive: dose: 62.5 mg/kg/injection, schedule: Q01DX009 (ip), vehicle: saline 99 % of control | dose: 125.0 mg/kg/injection, schedule: Q01DX009 (ip), vehicle: saline 98 % of control

COC(=O)/C=C(/C(=O)OC)N(C)Cc1ccccc1
inactive: [2] 97 % of control | [4] 104 % of control | [6] 98 % of control | [10] 99 % of control | [8] 101 % of control | [11] 99 % of control | [12] 101 % of control

CCOC(=O)C(N=Nc1ccc(Br)c(C)c1)C(C)=O (stereo not given)
inactive: dose: 50.0 mg/kg/injection, schedule: Q01DX005 (ip), vehicle: saline with Tween-80 107 % of control | dose: 100.0 mg/kg/injection, schedule: Q01DX005 (ip), vehicle: saline with Tween-80 93 % of control | dose: 200.0 mg/kg/injection, schedule: Q01DX005 (ip), vehicle: saline with Tween-80 97 % of control

O=C(Nc1cccc(Cl)c1)c1cc(N=Nc2ccc([N+](=O)[O-])cc2Cl)ccc1O
inactive: [1] 104 % of control | dose: 12.5 mg/kg/injection, schedule: Q01DX009 (ip), vehicle: saline with Tween-80 105 % of control | [2] 113 % of control | [3] 107 % of control | [4] 113 % of control | [5] 107 % of control | [6] 118 % of control | [7] 115 % of control | [9] 115 % of control

Brc1ccc(-c2nc3sc(-c4ccc5c(c4)OCO5)nn3c2Br)cc1
inactive: [13] 100 % of control | dose: 120.0 mg/kg/injection, schedule: Q01DX005 (ip), vehicle: saline with Tween-80 100 % of control | dose: 240.0 mg/kg/injection, schedule: Q01DX005 (ip), vehicle: saline with Tween-80 93 % of control

CCC(N)Cc1cc(OC)c(C)cc1OC (stereo not given)
inactive: dose: 25.0 mg/kg/injection, schedule: Q01DX009 (ip), vehicle: saline with Tween-80 90 % of control | [17] 98 % of control and 99 % of control | [18] 103 % of control

CCN=C1C=C/C(=C(/c2ccc(NCC)c(C)c2)c2cc(O)c(S(=O)(=O)O)cc2S(=O)(=O)O)C=C1C
inactive: dose: 60.0 mg/kg/injection, schedule: Q01DX005 (ip), vehicle: saline 107 % of control | dose: 120.0 mg/kg/injection, schedule: Q01DX005 (ip), vehicle: saline 106 % of control | dose: 240.0 mg/kg/injection, schedule: Q01DX005 (ip), vehicle: saline 102 % of control

Cc1[nH]c2c(N)cccc2c1C
inactive: [17] 97 % of control | [18] 90 % of control | [19] 88 % of control

CC(=O)Oc1cc2c(cc1OC(C)=O)C(=O)CCC=C2
inactive: dose: 100.0 mg/kg/injection, schedule: Q04DX003 (ip), vehicle: saline sonified 110 % of control | dose: 200.0 mg/kg/injection, schedule: Q04DX003 (ip), vehicle: saline sonified 100 % of control | dose: 400.0 mg/kg/injection, schedule: Q04DX003 (ip), vehicle: saline sonified 100 % of control

CC(O)C(N)C(=O)NC(Cc1ccc(O)cc1)C(=O)NC(CO)C(=O)NC(CCCCN)C(=O)O (stereo not given) (H-TYSK-OH; configuration not given here)
inactive: [14] 99 % of control | [15] 107 % of control | [16] 106 % of control

COc1ccc(C=C2C=C(C(C)(C)C)C(=O)C(C(C)(C)C)=C2)cc1
inactive: dose: 50.0 mg/kg/injection, schedule: Q01DX005 (ip), vehicle: distilled water + alcohol 108 % of control | dose: 100.0 mg/kg/injection, schedule: Q01DX005 (ip), vehicle: distilled water + alcohol 96 % of control | dose: 200.0 mg/kg/injection, schedule: Q01DX005 (ip), vehicle: distilled water + alcohol 108 % of control

COc1ccc(-c2nc(C)cc3cc(OC)c(OC)cc23)cc1OC
inactive: dose: 12.5 mg/kg/injection, schedule: Q01DX009 (ip), vehicle: water 98 % of control | dose: 25.0 mg/kg/injection, schedule: Q01DX009 (ip), vehicle: water 100 % of control | dose: 50.0 mg/kg/injection, schedule: Q01DX009 (ip), vehicle: water 100 % of control | dose: 100.0 mg/kg/injection, schedule: Q01DX009 (ip), vehicle: water 100 % of control

NC(Cc1c[nH]c2ccc([N+](=O)[O-])cc12)C(=O)O (stereo not given)
inactive: [17] 92 % of control | [18] 91 % of control | [19] 94 % of control | dose: 400.0 mg/kg/injection, schedule: Q01DX009 (ip), vehicle: saline with Tween-80 91 % of control

COc1cc(CC2c3cc(OC)c(OC)cc3CCN2C)c(Oc2cc3c(cc2OC)-c2c(O)c(OC)cc4c2C(C3)N(C)CC4)cc1OC (stereo not given)
inactive: dose: 12.5 mg/kg/injection, schedule: Q04DX003 (ip), vehicle: saline with Tween-80 101 % of control | dose: 25.0 mg/kg/injection, schedule: Q04DX003 (ip), vehicle: saline with Tween-80 101 % of control | dose: 50.0 mg/kg/injection, schedule: Q04DX003 (ip), vehicle: saline with Tween-80 100 % of control | [11] 89 % of control | [12] 97 % of control

N#Cc1c(N)nc2c(c1N)CC(CCl)O2 (stereo not given)
inactive: [17] 94 % of control | [18] 96 % of control | [19] 87 % of control

C[N+](C)(C)CCOS(C)(=O)=O
inactive: dose: 1.56 mg/kg/injection, schedule: Q01DX009 (ip), vehicle: Klucel (hydroxypropylcellulose) (HPC) 90 % of control and 93 % of control | dose: 1.56 mg/kg/injection, schedule: Q01DX009 (ip), vehicle: saline 101 % of control | dose: 3.13 mg/kg/injection, schedule: Q01DX009 (ip), vehicle: Klucel (hydroxypropylcellulose) (HPC) 99 % of control | dose: 3.13 mg/kg/injection, schedule: Q01DX009 (ip), vehicle: saline 111 % of control and 95 % of control | dose: 6.25 mg/kg/injection, schedule: Q01DX009 (ip), vehicle: Klucel (hydroxypropylcellulose) (HPC) 89 % of control (2×) and 94 % of control | dose: 6.25 mg/kg/injection, schedule: Q01DX009 (ip), vehicle: saline 90 % of control | dose: 12.5 mg/kg/injection, schedule: Q01DX009 (ip), vehicle: saline 92 % of control
